Measurements reported in patent US11065211B2, “Isoxylitones mediated neurogenesis” (priority 2018, dated 2021).

Legend:
Assay type in all cases: cell-based, rat
cortical cells = experiment: AlamarBlue proliferation assay; conditions: 24 h treatment, vs control, FIG. 3
Source text: (§1) AlamarBlue (AB), a water-soluble dye having resazurin salt was used to evaluate the effect of isoxylitones on the proliferation of the cultured cells. AB measures mitochondrial reductase activity of live cells. The resazurin has ability to enter the cytosol of viable cell and converted to the reduced fluorescent form resorufin by mitochondrial enzyme activity by accepting electrons from NADPH, FADH, FMNH, NADH as well as from the cytochromes. The redox reaction is accompanied by a change in color of the culture medium from blue to fluorescent red (Al-Nasiry, Geusens, Hanssens, Luyten, Pijnenborg, 2007). The amount of fluorescence produced is proportional to the number of living cells (Al-Nasiry, Geusens, Hanssens, Luyten, Pijnenborg, 2007). The cultured hippocampal, cortical and co-cultures were plated in 96-well plates (10,000 cells/well) and incubated for 24 hrs at 37° C. and 5% CO2. […] After incubation, the fluorescence intensity in each well was recorded at an excitation wavelength of 570 nm and an emission wavelength of 600 nm. The rate of cell proliferation was expressed as the relative fluorescence intensity. […] The blank media fluorescence measurement was subtracted from fluorescence measurements of cells from the same run.
(§2) Formula used to calculate the percentage reduction of AB using absorbance readings: […]

hippocampal cells = experiment: AlamarBlue proliferation assay; conditions: 24 h treatment, vs control, FIG. 3
Source text: as §1, §2

[1] = test system: cortical cells and hippocampal cells; experiment: MTT assay, in vitro screening of compounds for cell proliferation activity; conditions: 24 hrs treatment
Source text: The Tetrazolium MTT [3-(4, 5-dimethyl thiazol-2-yl)-2,5-diphenyl tetrazolium bromide] Assay: MTT assay was used to screen various compounds for their proliferating effect on cortical cells and hippocampal cells. The principle of MTT test is based on the ability of live cells to form insoluble purple formazan product from the breakdown of the water soluble yellow tetrazolium salt by mitochondrial enzyme succinate dehydrogenase (Mosmann, 1983). The resulting intracellular purple formazan can quantify by spectrophotometric means. The MTT Cell Proliferation Assay measures the cell proliferation rate and conversely, when metabolic events lead to apoptosis or necrosis, the reduction in cell viability.
The density of the cortical and hippocampal cells was adjusted at the density 2×10^5 cells/mL in complete DMEM medium (5% FBS). The cells (5000/well) were then plated in 96-wells plate and incubated for 24 hrs at 37° C. with 5% CO2. Following 24 hrs incubation, media was removed and 100 μL of each test compounds in DMEM media (5% FBS) were added. […] The culture plates were re-incubated for 24 hrs at 37° C. in 5% CO2. Cells treated with 0.1% DMSO in complete media (5% FBS) were used as vehicle controls. […] The absorbance was read at 495 nm on spectrophotometer. […] The percent rate of proliferation was calculated using the following formula, % rate of proliferation={(At−Ab)/(Ac−Ab)}×100

hippocampal (HP) cells = experiment: Growth supporting effect on neuronal cultures (phase contrast microscopy); conditions: FIG. 1
Protocol: (§3) For isolation of hippocampal and cortical neurons, two days old rat pups were sacrificed under sterile conditions. Brain samples were carefully isolated and hippocampal and cortical regions were dissected out and placed in ice-cold PBS supplemented with 1% penicillin-streptomycin. Tissue was chopped in small pieces with a sterile scalpel and washed three times with PBS. Subsequently tissues were digested in typsin-EDTA solution (0.05% of trypsin) for 7 minutes at 37° C. and 5% CO2 in a humidified chamber. After typsinisation, cells were washed three times in Dulbecco's Modified Eagle's Medium (DMEM) media containing 5% FBS and finally triturated using flame-polished Pasteur pipette to prepare dissociated cell suspension. The cell suspensions were then centrifuged at 1200 rpm for 4 minutes, supernatants were discarded and cell pellets were re-suspended in 1 mL complete media to find out the cell count and viability. Cells were finally cultured in DMEM (high glucose), supplemented with 10% fetal bovine serum (FBS), 1% L-Glutamine, 1% penicillin/streptomycin (10,000 U/mL and 10 mg/mL, resp.), and 1% sodium pyruvate. The culture flasks (75 cm^2) were then incubated at 37° C. with 5% CO2. Cells were examined daily for any change in morphology or contamination. Media was changed twice or thrice weekly. All cell work was done in a tissue culture hood under sterile conditions.
(§4) To evaluate the growth supporting effect of isoxylitones the hippocampal, cortical and co-cultured cells were plated in 6-well plates and treated with 25 μg/mL, 50 μg/mL, 75 μg/mL and 150 μg/mL doses of isoxylitones. Cells with no treatment were set as a control. The plates were incubated for 24 and 72 hrs in a humidified chamber at 37° C. in 5% CO2. To assess the morphology of the treated cells, images were captured and digitalized with Nikon TE-2000 inverted microscope equipped with phase-contrast optics to measure the difference of control group from treated group. The cells were observed carefully in order to check if they maintain their morphological characteristics after treatment with the compound. The doses which supported the maximum proliferation were used for proliferation assays i.e., AlamarBlue and BrdU assay.

cortical (CTX) cells = experiment: as above; conditions: cortical cells treated for 24 h, FIG. 1
Protocol: as §3, §4

[2] = hippocampal cells treated for 24 h

CC(=O)C=C1C=C(C)CC(C)(C)C1 (mixture of isomers) [isoxylitones]
proliferation (Alamar blue) (cortical cells): growth supportive and proliferative effect
proliferation (Alamar blue) (hippocampal cells): growth supportive and proliferative effect
activity on the cell proliferation (MTT screening) [1]: significant potent activity
effect on morphology (hippocampal (HP) cells; [2]): without any significant change in morphology
proliferation (phase contrast photomicrographs) (hippocampal (HP) cells; [2]): increased proliferation
proliferation of treated hippocampal cells compared to cortical cells (hippocampal (HP) cells; treated for 24 h): higher proliferation as compared to cortical cells
effect on morphology (cortical (CTX) cells): without any significant change in morphology
proliferation (phase contrast photomicrographs) (cortical (CTX) cells): increased proliferation
